Source: patent US20220387357A1, “Method of Dosing a Pain Therapeutic” (priority 2021, published 2022)
Read-outs that look alike come from different tables or passages of the source.

Key:
[1] = Acute pain tail-flick assay, side-by-side mice studies; assay type: in vivo; settings: side-by-side comparison, similar to opioids
CB1 receptors = CB1 receptors (Homo sapiens, UniProt P21554); settings: mediated through CB1 receptors; cited from earlier work
[2] = Nonclinical studies of analgesia compared with morphine; assay type: in vivo
[3] = assay type: in vivo, human
Excerpt: Tachycardia was the most common adverse event (AE) in this study, reported in 5 of 48 subjects (10%) following active treatment and in no subjects following placebo; all of the treatment-emergent AEs (TEAEs) of tachycardia were deemed related to study treatment.
The Toxicity Grading Scale for Healthy Adult and Adolescent Volunteers Enrolled in Preventative Vaccine Clinical Trials criteria for tachycardia are defined as follows: […]
Severe (Grade 3): >130 bpm
In this study, tachycardia was dose limiting at a level >130 bpm.

[4] = Preclinical animal models of pain; assay type: in vivo; settings: acute pain, visceral pain, fibromyalgia, diabetic peripheral neuropathy, sciatica, chemotherapy induced pain, osteoarthritis models
Excerpt: (§1) Nevertheless, CMX-020 may produce adverse side effects when given at improper dosages. Methods of administrating an effective amount of the compound CMX-020 to produce an analgesia effective, while still being within a safe and tolerable dose, is both necessary and desirable.

[5] = assay type: in vivo, humans
Excerpt: as §1

[6] = Subject 0048, 0.24 mg/kg 15-minute infusion
[7] = Subject 0057, 0.32 mg/kg 30-minute infusion
[8] = following active treatment, all dose levels

Sequence of CB1 receptors (P21554 whole entry): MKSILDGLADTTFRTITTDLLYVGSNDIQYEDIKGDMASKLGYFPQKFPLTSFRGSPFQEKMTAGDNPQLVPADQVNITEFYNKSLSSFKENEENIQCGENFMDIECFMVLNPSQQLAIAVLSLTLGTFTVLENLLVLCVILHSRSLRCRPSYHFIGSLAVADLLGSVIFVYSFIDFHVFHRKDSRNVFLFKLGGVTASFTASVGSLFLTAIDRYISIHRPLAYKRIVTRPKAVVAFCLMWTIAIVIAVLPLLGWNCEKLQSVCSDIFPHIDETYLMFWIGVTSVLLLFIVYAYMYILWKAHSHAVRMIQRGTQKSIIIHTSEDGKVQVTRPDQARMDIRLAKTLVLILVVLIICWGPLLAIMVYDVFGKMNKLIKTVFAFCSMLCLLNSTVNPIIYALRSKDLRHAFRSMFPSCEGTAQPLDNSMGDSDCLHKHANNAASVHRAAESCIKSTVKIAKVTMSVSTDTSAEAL

CCCCC/C=C\C/C=C\C/C=C\C/C=C\CCCC(=O)Nc1ccc(O)cc1 [AM404, reference compound]
Analgesic efficacy in the acute pain tail-flick assay [1]: highest level of analgesic efficacy | Anticonvulsant action (CB1 receptors): anticonvulsant action mediated through CB1 receptors

CCCCCC(=O)N(CCC=C=CCCCC=C=CCC=C=CCCCC(=O)NC1CC1)C(C)C [CMX-020]
Analgesia compared with morphine [2]: analgesia equivalent to that achieved by morphine | Number of elevated heart rate assessed as clinically significant ([3]; 0.32 mg/kg and 0.24 mg/kg 15-minute infusion groups compared with the other dose levels and placebo): higher number | Doses at which tachycardia was reported ([3]; 0.32 mg/kg and 0.24 mg/kg 15 minutes infusion and 0.32 mg/kg 30 minute infusion): only at the three highest doses | Time of peak heart rate following the start of treatment administration ([3]; Subject 0033, 0.32 mg/kg 15-minute infusion): 16 min | Heart rate after decrease ([3]; Subject 0033, 0.32 mg/kg 15-minute infusion, 15 minutes following the peak heart rate): 113 bpm | Peak Pulse ([3]; Subject 0033, Cohort 5, 0.32 mg/kg 15-minute infusion): 138 bpm | Time of peak heart rate following the start of dose administration ([3]; Subject 0036, 0.32 mg/kg 15-minute infusion): 16 min | Heart rate after decrease ([3]; Subject 0036, 0.32 mg/kg 15-minute infusion, 15 minutes following the start of treatment administration (so in the source)): 101 bpm | Peak Pulse ([3]; Subject 0036, Cohort 5, 0.32 mg/kg 15-minute infusion): 110 bpm | Time of elevated heart rate following the start of dose administration ([3]; Subject 0045, 0.24 mg/kg 15-minute infusion): 11 min | Heart rate after decrease ([3]; Subject 0045, 0.24 mg/kg 15-minute infusion, 10 minutes following the start of treatment administration (so in the source)): 109 bpm | Peak Pulse ([3]; Subject 0045, Cohort 6, 0.24 mg/kg 15-minute infusion (discontinued, total dose received 0.156 mg/kg)): 156 bpm | Time of TEAE of tachycardia following start of treatment administration [3, 6]: 11 min | Time of peak heart rate following start of treatment administration [3, 6]: 16 min | Heart rate after decrease ([3]; Subject 0048, 0.24 mg/kg 15-minute infusion, 15 minutes following the peak heart rate): 103 bpm | Peak Pulse ([3]; Subject 0048, Cohort 6, 0.24 mg/kg 15-minute infusion): 109 bpm | Time of TEAE of tachycardia following start of treatment administration [3, 7]: 16 min | Time of peak heart rate following start of treatment administration [3, 7]: 20 min | Heart rate after decrease ([3]; Subject 0057, 0.32 mg/kg 30-minute infusion, 20 minutes following the peak heart rate): 97 bpm | Peak Pulse ([3]; Subject 0057, Cohort 8, 0.32 mg/kg 30-minute infusion): 110 bpm | Time of peak in elevated heart rate following the start of treatment administration ([3]; cohorts 5 and 6, 15-minute infusions): 11 to 16 min | Time of peak in elevated heart rate ([3]; cohorts 7 and 8, 30-minute infusions): approximately 30 minutes | Incidence of tachycardia (adverse event) [3, 8]: 10% | Subjects reporting tachycardia (adverse event) [3, 8]: 5 of 48 | Pain response in animal models of pain [4]: effectively reduce the pain response | Analgesic efficacy in the acute pain tail-flick assay [1]: highest level of analgesic efficacy | Efficacy in proof-of-concept trial in sciatic pain ([5]; humans, sciatic pain): indicated efficacy | Safety when administered to humans ([5]; intravenous and oral formulations, several dose levels): demonstrated the safety
